Reference: US20030013099A1, “Genes regulated by DNA methylation in colon tumors” (priority 2001, published 2003)

Test system: HMEC cells
Assay: microarray differential expression, HMEC cells treated with Aza
Assay type: cell-based, human
Conditions: vs untreated, log base 2, negative = upregulation
Method: HT29 cells were derived from a Grade II adenocarcinoma of the colon obtained from a person. HCT116 cells are a subpopulation of malignant cells isolated from a primary cell culture of a single human colonic carcinoma (Brattain et al. (1981) Cancer Res 41:1751-6). HMEC cells are a primary human epithelial cell line derived from the breast tissue of a normal donor. […] Treated cells were exposed to 500 nM 5-aza-2-deoxycytidine (Aza; Sigma-Aldrich) 24 hours after passage in complete culture medium. Control cultures were treated in parallel with phosphate buffered saline vehicle. After twenty-four hours, culture medium was replaced with drug-free medium. Control and Aza-treated cells were subcultured at equal densities at 1 and 5 days after the initial treatment, and proliferation was measured at the subsequent time point using a Coulter counter (Beckman Coulter, Fullerton Calif.). […]
Cells were harvested and lysed in 1 ml of TRIZOL reagent (5×10^6 cells/ml; Invitrogen). The lysates were vortexed thoroughly and incubated at room temperature for 2-3 minutes and extracted with 0.5 ml chloroform. The extract was mixed, incubated at room temperature for 5 minutes, and centrifuged at 16,000× g for 15 minutes at 4° C. The aqueous layer was collected, and an equal volume of isopropanol was added. Samples were mixed, incubated at room temperature for 10 minutes, and centrifuged at 16,000× g for 20 minutes at 4° C. The supernatant was removed, and the RNA pellet was washed with 1 ml of 70% ethanol, centrifuged at 16,000× g at 4° C., and resuspended in RNAse-free water. The concentration of the RNA was determined by measuring the optical density at 260 nm.
Poly(A) RNA was prepared using an OLIGOTEX mRNA kit (Qiagen) with the following modifications: OLIGOTEX beads were washed in tubes instead of on spin columns, resuspended in elution buffer, and then loaded onto spin columns to recover mRNA. To obtain maximum yield, the mRNA was eluted twice.
Each poly(A) RNA sample was reverse transcribed using MMLV reverse-transcriptase, 0.05 pg/μl oligo-d(T) primer (21mer), 1× first strand buffer, 0.03 units/ul RNAse inhibitor, 500 uM dAT?, 500 uM dGTP, 500 uM dTTP, 40 uM dCTP, and 40 uM either dCTP-Cy3 or dCTP-Cy5 (APB). The reverse transcription reaction was performed in a […] volume containing 200 ng poly(A) RNA using the GEMBRIGHT kit (Incyte Genomics). Specific control poly(A) RNAs (YCFRO6, YCFR45, YCFR67, YCFR85, YCFR43, YCFR22, YCFR23, YCFR25, YCFR44, YCFR26) were synthesized by in vitro transcription from non-coding yeast genomic DNA (W. Lei, unpublished). As quantitative controls, control mRNAs (YCFRO6, YCFR45, YCFR67, and YCFR85) at 0.002 ng, 0.02 ng, 0.2 ng, and 2 ng were diluted into reverse transcription reaction at ratios of 1:100,000, 1:10,000, 1:1000, 1:100 (w/w) to sample mRNA, respectively. To sample differential expression patterns, control mRNAs (YCFR43, YCFR22, YCFR23, YCFR25, YCFR44, YCFR26) were diluted into reverse transcription reaction at ratios of 1:3, 3:1, 1:10, 10:1, 1:25, 25:1 (w/w) to sample mRNA. Reactions were incubated at 37° C. for 2 hours, treated with […] of 0.5M sodium hydroxide, and incubated for 20 minutes at 85° C. to the stop the reaction and degrade the RNA.
cDNAs were purified using two successive CHROMA SPIN 30 gel filtration spin columns (Clontech). Cy3- and Cy5-labeled reaction samples were combined as described below and ethanol precipitated using […] of 100% ethanol. The cDNAs were then dried to completion using a SpeedVAC system (Savant Instruments, Holbrook N.Y.) and resuspended in 14 μl 5× SSC, 0.2% SDS.
Hybridization reactions contained 9 μl of sample mixture containing 0.2 μg each of Cy3 and CyS labeled cDNA synthesis products in 5× SSC, 0.2% SDS hybridization buffer. The mixture was heated to 65° C. for 5 minutes and was aliquoted onto the microarray surface and covered with an 1.8 cm^2 coverslip. […]

[1] = SEQ ID NO:33 cDNA clone YU62C03
[2] = SEQ ID NO:37, 38 MAGE-4b antigen
[3] = SEQ ID NO:49 phospholipid scramblase 1
[4] = SEQ ID NO:50 retinoid inducible gene 1
[5] = SEQ ID NO:51 interferon induced
[6] = SEQ ID NO:56 hepatitis C-associated microtubular aggregate
[7] = SEQ ID NO:58 Similar to keratin 7

For Nc1ncn([C@H]2C[C@H](O)[C@@H](CO)O2)c(=O)n1 [Aza, 5-aza-2-deoxycytidine], the “differential expression, Clone ID 4764233, HMEC t/Aza (9d)” value (SEQ ID NO:30 GAGE-8) was 0.00, the “differential expression, Clone ID 2511379, HMEC t/Aza (4d)” value (SEQ ID NO:31 GAGE-7B) was 0.32 and the “differential expression, Clone ID 2511379, HMEC t/Aza (9d)” value (SEQ ID NO:31 GAGE-7B) was 0.32. The “differential expression, Clone ID 2471817, HMEC t/Aza (4d)” value [1] was 0.07, the “differential expression, Clone ID 2471817, HMEC t/Aza (9d)” value [1] was 0.00 and the “differential expression, Clone ID 3333736, HMEC t/Aza (4d)” value (SEQ ID NO:34 MAGE-11 antigen) was 0.06. The “differential expression, Clone ID 3333736, HMEC t/Aza (9d)” value (SEQ ID NO:34 MAGE-11 antigen) was 0.00, the “differential expression, Clone ID 1304365, HMEC t/Aza (4d)” value (SEQ ID NO:35 GAGE-8) was 0.00 and the “differential expression, Clone ID 1304365, HMEC t/Aza (9d)” value (SEQ ID NO:35 GAGE-8) was 0.00. The “differential expression, Clone ID 2657056, HMEC t/Aza (4d)” value [2] was 0.13, the “differential expression, Clone ID 2657056, HMEC t/Aza (9d)” value [2] was 0.00 and the “differential expression, Clone ID 2507719, HMEC t/Aza (4d)” value (SEQ ID NO:39 MAGE-9 antigen) was −0.48. For the same molecule, the “differential expression, Clone ID 2507719, HMEC t/Aza (9d)” value (SEQ ID NO:39 MAGE-9 antigen) was −0.24, the “differential expression, Clone ID 4688, HMEC t/Aza (4d)” value (SEQ ID NO:41 MAGE-1) was −0.13 and the “differential expression, Clone ID 4688, HMEC t/Aza (9d)” value (SEQ ID NO:41 MAGE-1) was −0.13. For the same molecule, the “differential expression, Clone ID 2068708, HMEC t/Aza (4d)” value (SEQ ID NO:42 HM74) was −0.50, the “differential expression, Clone ID 2068708, HMEC t/Aza (9d)” value (SEQ ID NO:42 HM74) was −0.24 and the “differential expression, Clone ID 23770, HMEC t/Aza (4d)” value (SEQ ID NO:43 1-8D) was −0.48. The “differential expression, Clone ID 23770, HMEC t/Aza (9d)” value (SEQ ID NO:43 1-8D) was −0.63, the “differential expression, Clone ID 1616783, HMEC t/Aza (4d)” value (SEQ ID NO:45 Incyte Unique) was −0.53 and the “differential expression, Clone ID 1616783, HMEC t/Aza (9d)” value (SEQ ID NO:45 Incyte Unique) was −0.20. The “differential expression, Clone ID 820942, HMEC t/Aza (4d)” value (SEQ ID NO:46 cDNA FLJ20120) was −0.48, the “differential expression, Clone ID 820942, HMEC t/Aza (9d)” value (SEQ ID NO:46 cDNA FLJ20120) was −0.20 and the “differential expression, Clone ID 891322, HMEC t/Aza (4d)” value (SEQ ID NO:47 Incyte Unique) was 0.00. For the same molecule, the “differential expression, Clone ID 891322, HMEC t/Aza (9d)” value (SEQ ID NO:47 Incyte Unique) was 0.00, the “differential expression, Clone ID 2755836, HMEC t/Aza (4d)” value (SEQ ID NO:48 U5 A RNA) was −0.26 and the “differential expression, Clone ID 2755836, HMEC t/Aza (9d)” value (SEQ ID NO:48 U5 A RNA) was −0.31. For the same molecule, the “differential expression, Clone ID 1227521, HMEC t/Aza (4d)” value [3] was −0.19, the “differential expression, Clone ID 1227521, HMEC t/Aza (9d)” value [3] was −0.63 and the “differential expression, Clone ID 2200842, HMEC t/Aza (4d)” value [4] was 0.00. The “differential expression, Clone ID 2200842, HMEC t/Aza (9d)” value [4] was 0.00, the “differential expression, Clone ID 2238363, HMEC t/Aza (4d)” value [5] was −0.50 and the “differential expression, Clone ID 2238363, HMEC t/Aza (9d)” value [5] was −0.29. For the same molecule, the “differential expression, Clone ID 1495382, HMEC t/Aza (4d)” value (SEQ ID NO:53 TRAIL) was −0.48, the “differential expression, Clone ID 1495382, HMEC t/Aza (9d)” value (SEQ ID NO:53 TRAIL) was −0.19 and the “differential expression, Clone ID 1998269, HMEC t/Aza (4d)” value (SEQ ID NO:55 rhoB) was −0.29. The “differential expression, Clone ID 1998269, HMEC t/Aza (9d)” value (SEQ ID NO:55 rhoB) was −0.68, the “differential expression, Clone ID 1919287, HMEC t/Aza (4d)” value [6] was 0.00 and the “differential expression, Clone ID 1919287, HMEC t/Aza (9d)” value [6] was 0.00. The “differential expression, Clone ID 2637446, HMEC t/Aza (4d)” value (SEQ ID NO:57 HE4 protein) was 0.00, the “differential expression, Clone ID 2637446, HMEC t/Aza (9d)” value (SEQ ID NO:57 HE4 protein) was 0.00 and the “differential expression, Clone ID 1962141, HMEC t/Aza (4d)” value [7] was 0.00. The “differential expression, Clone ID 1962141, HMEC t/Aza (9d)” value [7] was −0.07, the “differential expression, Clone ID 4933404, HMEC t/Aza (4d)” value (SEQ ID NO:60 Incyte Unique) was 0.96 and the “differential expression, Clone ID 4933404, HMEC t/Aza (9d)” value (SEQ ID NO:60 Incyte Unique) was 0.48. The “differential expression, Clone ID 2150288, HMEC t/Aza (4d)” value (SEQ ID NO:61 Keratin 8) was −0.67, the “differential expression, Clone ID 2150288, HMEC t/Aza (9d)” value (SEQ ID NO:61 Keratin 8) was −0.42 and the “differential expression, Clone ID 2697455, HMEC t/Aza (4d)” value (SEQ ID NO:61 Keratin 8) was −0.63. For the same molecule, the “differential expression, Clone ID 2697455, HMEC t/Aza (9d)” value (SEQ ID NO:61 Keratin 8) was −0.37.
